According to US20190082696A1, “METHOD FOR CONTROLLING PESTS OF PLANTS” (BASF SE, priority 2016, published 2019):

Test system: green peach aphid (Myzus persicae)
Test: Biological activity of mixtures: green peach aphid systemic test with Colby analysis
Format: in vivo
Conditions: 3 days
Text: Synergism can be described as an interaction where the combined effect of two or more compounds is greater than the sum of the individual effects of each of the compounds. The presence of a synergistic effect in terms of percent control, between two mixing partners (X and Y) can be calculated using the Colby equation (Colby, S. R., 1967, Calculating Synergistic and Antagonistic Responses in Herbicide Combinations, Weeds, 15, 20-22):
When the observed combined control effect is greater than the expected combined control effect (E), then the combined effect is synergistic.
The analysis of synergism or antagonism between the mixtures or compositions was determined using Colby's equation.
For evaluating control of green peach aphid (Myzus persicae) through systemic means the test unit consisted of 96-well-microtiter plates containing liquid artificial diet under an artificial membrane.
The compounds or mixtures were formulated using a solution containing 75% water and 25% DMSO. Different concentrations of formulated compounds or mixtures were pipetted into the aphid diet, using a custom built pipetter, at two replications. […]
After application, 5-8 adult aphids were placed on the artificial membrane inside the microtiter plate wells. […] Aphid mortality and fecundity was then visually assessed.

CC1(C)C(C=C(Cl)Cl)C1C(=O)OC(C#N)c1cccc(Oc2ccccc2)c1 (centres unmarked) [Alphacypermethrin]
Average Control % (10 ppm): 0%

CCC(=O)N1CC2(C1)OCc1cc(C3=NOC(c4cc(Cl)c(F)c(Cl)c4)(C(F)(F)F)C3)ccc12 (centres unmarked) [Compound I-1]
Average Control % (0.4 ppm): 0%
